Test results taken from patent US7553867B2, “Furan or thiophene derivative and medicinal use thereof” (Takeda Pharmaceutical Company Limited, priority 2002, dated 2009).

Tests used:
[1] = molecular target: T1, human GPR40 (Homo sapiens, UniProt O14842); experiment: Receptor function regulating action (agonist action) for GPR40, intracellular calcium by FLIPR in CHO cells; assay type: cell-based; conditions: CHO cells expressing human GPR40; change of fluorescence intensity at 30 seconds after reaction initiation
T1 construct: expressed in transfected cells; host or cells: CHO cell strain (No. 104)
T1 sequence (O14842 whole entry): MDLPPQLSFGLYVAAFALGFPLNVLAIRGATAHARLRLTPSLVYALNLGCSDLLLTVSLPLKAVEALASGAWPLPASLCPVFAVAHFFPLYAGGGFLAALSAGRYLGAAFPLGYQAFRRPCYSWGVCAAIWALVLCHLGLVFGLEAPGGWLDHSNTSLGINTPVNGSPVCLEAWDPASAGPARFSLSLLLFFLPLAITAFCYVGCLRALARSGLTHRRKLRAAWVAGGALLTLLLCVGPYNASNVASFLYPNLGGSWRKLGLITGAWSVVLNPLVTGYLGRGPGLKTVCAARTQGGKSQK
Procedure: CHO cell strain (No. 104) which have had expressed human GPR40 was diluted to contain 3×10^4 cells/100 μL, and added to a Black walled 96-well plate (Costar) at 100 μL/well, and incubated overnight in CO2 incubator. Change of intracellular calcium concentration was measured with FLIPR (Molecular Device). The method is as follows. 50 μg of Fluo-3AM (DOJIN) was dissolved in 21 μL of DMSO (DOJIN), and the same amount of 20% pluronic acid (Molecular Probes) was further added thereto, and the mixture was mixed. The mixture was added to 10.6 mL of an assay buffer [prepared by adding 10 mL of solution which was produced by adding 20 mL of 1 M HEPES (pH 7.4) (DOJIN) to 1 L of HBSS (Invitrogen), dissolving 710 mg of probenecid (Sigma) in 5 mL of 1N NaOH, and further adding 5 mL of the above-mentioned HBSS/HEPES solution thereto and mixing it.] containing 105 μL of fetal bovine serum, to give a fluorescent dye solution. The medium of the cell plate was removed, and immediately, the fluorescent dye solution was added at 100 μL/well, and incubated in CO2 incubator for 1 hour, allowing the fluorescent dye to be incorporated into the cells. The cells after incubation were washed with the above-mentioned assay buffer. The compound to be added to the cells was diluted with the assay buffer to each concentration, added to the plate for the test sample. After conducting the above-mentioned pretreatment, intracellular calcium concentration change after adding the compound was measured in FLIPR to investigate the agonist action. By dose-response curve with the change of fluorescence intensity value at 30 seconds after reaction initiation, EC50 value was calculated.

| melting point | EC50 [1] | SMILES |
| --- | --- | --- |
| 118 to 119 °C | 580 nM | CCCCc1oc(-c2ccc(C(F)(F)F)cc2)cc1COc1ccc(CCC(=O)O)c(C)c1 [Example 5(11), 3-[4-({2-Butyl-5-[4-(trifluoromethyl)phenyl]-3-furyl}methoxy)-2-methylphenyl]propionic acid] |
| 123 to 125 °C | 100 nM | Cc1cc(OCc2cc(-c3ccc(F)cc3)oc2C)ccc1CCC(=O)O [Example 5(8), 3-(4-{[5-(4-Fluorophenyl)-2-methyl-3-furyl]methoxy}-2-methylphenyl)propionic acid] |
| 108 to 109 °C | 870 nM | Cc1cc(OCc2cc(-c3ccc(C(F)(F)F)cc3)oc2C(C)C)ccc1CCC(=O)O [Example 5(10), 3-[4-({2-Isopropyl-5-[4-(trifluoromethyl)phenyl]-3-furyl}methoxy)-2-methylphenyl]propionic acid] |
| – | 2000 nM | CCCCC/C=C\C/C=C\C/C=C\CCCCC(=O)O [γ-linolenic acid] |
| 168 to 169 °C | 290 nM | Cc1oc(-c2ccc(C(F)(F)F)cc2)cc1COc1ccc(OCC(=O)O)cc1 [Example 6(7), [4-({2-Methyl-5-[4-(trifluoromethyl)phenyl]-3-furyl}methoxy)phenoxy]acetic acid] |
| 106 to 108 °C | – | Cc1oc(-c2ccc(C(F)(F)F)cc2)cc1COc1cccc(CSC(C)(C)C(=O)O)c1F [Example 6(96), 2-{[2-Fluoro-3-({2-methyl-5-[4-(trifluoromethyl)phenyl]-3-furyl}methoxy)benzyl]thio}-2-methylpropionic acid] |
| 140 to 141 °C | – | Cc1oc(-c2ccc(C(F)(F)F)cc2)cc1/C=C/c1ccc(OC(C)(C)C(=O)O)cc1 [Example 22(1), 2-Methyl-2-[4-((E)-2-{2-methyl-5-[4-(trifluoromethyl)phenyl]-3-furyl}ethenyl)phenoxy]propionic acid] |
| 146 to 147 °C | – | Cc1oc(-c2cccc(F)c2)cc1COc1ccc(SC(C)(C)C(=O)O)cc1 [Example 6(115), 2-[(4-{[5-(3-Fluorophenyl)-2-methyl-3-furyl]methoxy}phenyl)thio]-2-methylpropionic acid] |
| 173 to 174 °C | – | O=C(O)CSCc1cccc(NC(=O)c2ccc(-c3ccc(Cl)cc3)o2)c1 [Example 2(3), [(3-{[5-(4-Chlorophenyl)-2-furoyl]amino}benzyl]thio]acetic acid] |
| 92 to 93 °C | – | CCc1oc(-c2ccc(C(F)(F)F)cc2)cc1CCCOc1cccc(CC(=O)O)c1F [Example 6(97), [3-(3-{2-Ethyl-5-[4-(trifluoromethyl)phenyl]-3-furyl}propoxy)-2-fluorophenyl]acetic acid] |
| 92 to 94 °C | – | Cc1oc(-c2ccc(C(F)(F)F)cc2)cc1CCOc1cccc(CC(=O)O)c1 [Example 6(83), [3-(2-{2-Methyl-5-[4-(trifluoromethyl)phenyl]-3-furyl}ethoxy)phenyl]acetic acid] |
| 139 to 140 °C | – | CCc1oc(-c2ccc(C(F)(F)F)cc2)cc1CCCOc1nn(CC(=O)O)c2ccccc12 [Example 6(100), [3-(3-{2-Ethyl-5-[4-(trifluoromethyl)phenyl]-3-furyl}propoxy)-1H-indazol-1-yl]acetic acid] |
| 202 to 205 °C | – | Cc1nc(SCc2cc(-c3ccc(F)cc3)oc2C)sc1CC(=O)O [Example 6(18), [2-({[5-(4-Fluorophenyl)-2-methyl-3-furyl]methyl}thio)-4-methyl-1,3-thiazol-5-yl]acetic acid] |
| 123 to 124 °C | – | Cc1oc(-c2ccc(C(F)(F)F)cc2)cc1CCCOc1ccc(OC(C)(C)C(=O)O)cc1 [Example 6(31), 2-Methyl-2-[4-(3-{2-methyl-5-[4-(trifluoromethyl)phenyl]-3-furyl}propoxy)phenoxy]propionic acid] |

| SMILES | melting point | EC50 [1] |
| --- | --- | --- |
| Cc1oc(-c2ccc(C(F)(F)F)cc2)cc1CCCCOc1ccc(SC(C)(C)C(=O)O)cc1 [Example 6(106), 2-Methyl-2-{[4-(4-{2-methyl-5-[4-(trifluoromethyl)phenyl]-3-furyl}butoxy)phenyl]thio}propionic acid] | 155 to 156 °C | – |
